Experimental data taken from article PMC6010027, “Iodine-mediated one-pot intramolecular decarboxylation domino reaction for accessing functionalised 2-(1,3,4-oxadiazol-2-yl)anilines with carbonic anhydrase inhibitory action” (Journal of Enzyme Inhibition and Medicinal Chemistry, 2018).

Experiments:
Assay in all cases: stopped-flow CO2 hydrase assay
Type in all cases: biochemical
hCA IX = target: T1, hCA IX (Homo sapiens, UniProt Q16790)
T1 construct: gene CA9; recombinant; transmembrane isoform
Description: stopped-flow CO2 hydrase assay on hCA IX

hCA IV = target: T2, hCA IV (Homo sapiens, UniProt P22748)
T2 construct: gene CA4; recombinant; membrane-anchored isoform
T2 sequence (P22748 19-284): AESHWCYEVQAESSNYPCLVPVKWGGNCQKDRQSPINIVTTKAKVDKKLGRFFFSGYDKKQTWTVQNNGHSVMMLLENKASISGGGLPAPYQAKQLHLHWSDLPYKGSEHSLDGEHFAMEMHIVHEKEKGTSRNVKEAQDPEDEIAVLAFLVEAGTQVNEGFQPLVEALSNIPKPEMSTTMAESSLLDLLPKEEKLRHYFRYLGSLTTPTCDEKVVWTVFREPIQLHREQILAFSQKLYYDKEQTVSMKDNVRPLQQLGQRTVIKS
Description: stopped-flow CO2 hydrase assay on hCA IV

hCA II = target: T3, hCA II (Homo sapiens, UniProt P00918)
T3 construct: gene CA2; recombinant; cytosolic isoform
Description: stopped-flow CO2 hydrase assay on hCA II

hCA I = target: T4, hCA I (Homo sapiens, UniProt P00915)
T4 construct: gene CA1; recombinant; cytosolic isoform
T4 sequence (P00915 2-261): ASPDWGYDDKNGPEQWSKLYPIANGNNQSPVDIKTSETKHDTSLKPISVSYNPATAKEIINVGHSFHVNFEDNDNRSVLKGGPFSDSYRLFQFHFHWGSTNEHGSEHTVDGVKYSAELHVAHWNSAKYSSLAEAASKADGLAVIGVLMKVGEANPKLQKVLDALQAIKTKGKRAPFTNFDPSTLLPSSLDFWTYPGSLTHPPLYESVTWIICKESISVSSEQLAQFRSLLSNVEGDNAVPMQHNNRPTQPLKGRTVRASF
Description: stopped-flow CO2 hydrase assay on hCA I

Row | SMILES | Ki (hCA IX) | Ki (hCA IV) | Ki (hCA II) | Ki (hCA I)
1 | Nc1ccccc1-c1nnc(-c2ccc(S(N)(=O)=O)cc2)o1 [8a, 4-(5-(2-Aminophenyl)-1,3,4-oxadiazol-2-yl)benzenesulfonamide] | 1.89 µM | 7.34 µM | 0.0341 µM | 0.222 µM
2 | Cc1ccc(N)c(-c2nnc(-c3ccc(S(N)(=O)=O)cc3)o2)c1 [8b, 4-(5-(2-Amino-5-methylphenyl)-1,3,4-oxadiazol-2-yl)benzenesulfonamide] | 1.6 µM | 5.61 µM | 0.0515 µM | 0.27 µM
3 | COc1ccc(N)c(-c2nnc(-c3ccc(S(N)(=O)=O)cc3)o2)c1 [8c, 4-(5-(2-Amino-5-methoxyphenyl)-1,3,4-oxadiazol-2-yl)benzenesulfonamide] | 0.282 µM | 5.92 µM | 0.0164 µM | 0.321 µM
4 | Nc1ccc(F)cc1-c1nnc(-c2ccc(S(N)(=O)=O)cc2)o1 [8d, 4-(5-(2-Amino-5-fluorophenyl)-1,3,4-oxadiazol-2-yl)benzenesulfonamide] | 1.6 µM | 6.33 µM | 0.0437 µM | 0.736 µM
5 | Nc1ccc(Cl)cc1-c1nnc(-c2ccc(S(N)(=O)=O)cc2)o1 [8e, 4-(5-(2-Amino-5-chlorophenyl)-1,3,4-oxadiazol-2-yl)benzenesulfonamide] | 2.37 µM | 8.24 µM | 0.221 µM | 3.5 µM
6 | Nc1ccc(OC(F)(F)F)cc1-c1nnc(-c2ccc(S(N)(=O)=O)cc2)o1 [8f, 4-(5-(2-Amino-5-(trifluoromethoxy)phenyl)-1,3,4-oxadiazol-2-yl)benzenesulfonamide] | 2.45 µM | 2.17 µM | 0.0932 µM | 0.71 µM
7 | Nc1c(F)cccc1-c1nnc(-c2ccc(S(N)(=O)=O)cc2)o1 [8g, 4-(5-(2-Amino-3-fluorophenyl)-1,3,4-oxadiazol-2-yl)benzenesulfonamide] | 2.27 µM | 2.02 µM | 0.0064 µM | 0.0814 µM
8 | Cc1cc(C)c(N)c(-c2nnc(-c3ccc(S(N)(=O)=O)cc3)o2)c1 [8h, 4-(5-(2-Amino-3,5-dimethylphenyl)-1,3,4-oxadiazol-2-yl)benzenesulfonamide] | 2.03 µM | 7.59 µM | 0.0176 µM | 0.0891 µM
9 | Nc1c(Cl)cc(Cl)cc1-c1nnc(-c2ccc(S(N)(=O)=O)cc2)o1 [8i, 4-(5-(2-Amino-3,5-dichlorophenyl)-1,3,4-oxadiazol-2-yl)benzenesulfonamide] | 2.74 µM | 6.78 µM | 0.0464 µM | 0.813 µM

Further lines, results first:

Row | Ki (hCA IX) | Ki (hCA IV) | Ki (hCA II) | Ki (hCA I) | SMILES
10 | 2.92 µM | 0.526 µM | 0.0469 µM | 3.31 µM | Nc1ccccc1-c1nnc(-c2cccc(S(N)(=O)=O)c2)o1 [8j, 3-(5-(2-Aminophenyl)-1,3,4-oxadiazol-2-yl)benzenesulfonamide]
11 | 2.96 µM | 0.437 µM | 0.0646 µM | 5.83 µM | Cc1ccc(N)c(-c2nnc(-c3cccc(S(N)(=O)=O)c3)o2)c1 [8k, 3-(5-(2-Amino-5-methylphenyl)-1,3,4-oxadiazol-2-yl)benzenesulfonamide]
12 | 2.72 µM | 0.588 µM | 0.516 µM | 3.51 µM | COc1ccc(N)c(-c2nnc(-c3cccc(S(N)(=O)=O)c3)o2)c1 [8l, 3-(5-(2-Amino-5-methoxyphenyl)-1,3,4-oxadiazol-2-yl)benzenesulfonamide]
13 | 2.57 µM | 0.548 µM | 0.307 µM | 0.747 µM | Nc1ccc(F)cc1-c1nnc(-c2cccc(S(N)(=O)=O)c2)o1 [8m, 3-(5-(2-Amino-5-fluorophenyl)-1,3,4-oxadiazol-2-yl)benzenesulfonamide]
14 | 0.255 µM | 9.43 µM | 0.48 µM | 0.344 µM | Nc1ccc(OC(F)(F)F)cc1-c1nnc(-c2cccc(S(N)(=O)=O)c2)o1 [8n, 3-(5-(2-Amino-5-(trifluoromethoxy)phenyl)-1,3,4-oxadiazol-2-yl)benzenesulfonamide]
15 | 0.14 µM | 0.521 µM | 0.0863 µM | 0.731 µM | Nc1c(F)cccc1-c1nnc(-c2cccc(S(N)(=O)=O)c2)o1 [8o, 3-(5-(2-Amino-3-fluorophenyl)-1,3,4-ovxadiazol-2-yl)benzenesulfonamide]
